Assays:
[1] = test system: K. pneumoniae JIE2713; assay: Checkerboard microdilution synergy test; format: cell-based, Klebsiella pneumoniae; settings: for MIC: Klebsiella pneumoniae, read-out: MIC of DrugB (alone, checkerboard); for FICDrugB / MF of antibiotic (modulation factor) / MIC of DrugB + TM8: in combination with TM8
Protocol: (§1) Then, 10 µl of bacteria (5 × 10^6 CFU ml^−1) or C. auris (2.5 × 10^4 CFU ml^−1) were added to each well, except for the sterility control well. […] The sterility control wells contained only MHB (or RPMI in case of C. auris), and the growth control contained 110 µl of microbial inoculum with no antimicrobials. Subsequently, the plates were incubated for 18- 24 hours at 36 ± 1 °C.
(§2) The FIC for each combination interaction was calculated as follows:
(§3) Then, the summation of FIC (ƩFIC) was calculated for each antimicrobial combination as follows: ƩFIC = FICA + FICB. […] All antimicrobial synergy experiments were repeated in at least two independent runs.

[2] = test system: P. aeruginosa 33; settings: P. aeruginosa 33; CAMHB, 37°C, 16–20 h
Protocol: (§4) Briefly, bacteria were suspended in cation-adjusted Mueller–Hinton broth (CAMHB; Oxoid, UK) for antibiotics, or MHB (Oxoid, UK) for peptidomimetics to obtain 5 × 10^5 colony forming unit (CFU) ml^−1. […] Positive controls contained only microbes, and blanks contained only media. Microbial suspensions (100 µl) were added to wells, plates wrapped, and incubated at 37°C, 120 rpm for 16–20 h. After incubation, suspensions were removed, log10 diluted, and plated on Trypticase Soya Agar with phosphatidylcholine and Tween 80 to determine minimum bactericidal or fungicidal concentration (MBC or MFC). […] Geometric mean MIC of the peptoids were calculated to evaluate the broad overview of antimicrobial activity across the pathogens.

[3] = test system: P. aeruginosa 216; settings: P. aeruginosa 216; CAMHB, 37°C, 16–20 h
Protocol: as §4

[4] = test system: E. coli 0011; settings: E. coli 0011; CAMHB, 37°C, 16–20 h
Protocol: as §4

[5] = test system: E. coli 0010; settings: E. coli 0010; CAMHB, 37°C, 16–20 h
Protocol: as §4

[6] = test system: K. pneumoniae JIE4212; settings: K. pneumoniae JIE4212; CAMHB, 37°C, 16–20 h
Protocol: as §4

[7] = test system: E. coli 0015; settings: E. coli 0015; CAMHB, 37°C, 16–20 h
Protocol: as §4

[8] = test system: En. cloacae 003; settings: En. cloacae 003; CAMHB, 37°C, 16–20 h
Protocol: as §4

[9] = test system: K. pneumoniae JIE2709; settings: K. pneumoniae JIE2709; CAMHB, 37°C, 16–20 h
Protocol: as §4

[10] = test system: En. cloacae 001; settings: En. cloacae 001; CAMHB, 37°C, 16–20 h
Protocol: as §4

[11] = test system: En. cloacae 005; settings: En. cloacae 005; CAMHB, 37°C, 16–20 h
Protocol: as §4

[12] = test system: E. coli 005; settings: E. coli 005; CAMHB, 37°C, 16–20 h
Protocol: as §4

[13] = test system: K. pneumoniae JIE2713; settings: K. pneumoniae JIE2713; CAMHB, 37°C, 16–20 h
Protocol: as §4

[14] = test system: P. aeruginosa AR-1270; settings: P. aeruginosa AR-1270; CAMHB, 37°C, 16–20 h
Protocol: as §4

[15] = test system: A. baumannii 005; settings: A. baumannii 005; CAMHB, 37°C, 16–20 h
Protocol: as §4

[16] = test system: A. baumannii 007; settings: A. baumannii 007; CAMHB, 37°C, 16–20 h
Protocol: as §4

[17] = test system: A. baumannii 008; settings: A. baumannii 008; CAMHB, 37°C, 16–20 h
Protocol: as §4

[18] = test system: A. baumannii 006; settings: A. baumannii 006; CAMHB, 37°C, 16–20 h
Protocol: as §4

[19] = test system: A. baumannii ATCC 19 606; settings: A. baumannii ATCC 19 606; CAMHB, 37°C, 16–20 h
Protocol: as §4

[20] = test system: K. pneumoniae JIE2709; assay: Checkerboard microdilution synergy test; format: cell-based, Klebsiella pneumoniae; settings: for MIC: Klebsiella pneumoniae, read-out: MIC of DrugB (alone, checkerboard); for FICDrugB / MF of antibiotic (modulation factor) / MIC of DrugB + TM8: in combination with TM8
Protocol: as §1, §2, §3

Molecule | FICDrugB [1] | MF of antibiotic (modulation factor) [1] | MIC of antibiotics [2] | MIC of antibiotics [3] | MIC of antibiotics [4] | MIC of antibiotics [5] | MIC of antibiotics [6] | MIC of antibiotics [7] | MIC of antibiotics [8] | MIC of antibiotics [9] | MIC of antibiotics [10] | MIC of antibiotics [11] | MIC of antibiotics [12] | MIC of antibiotics [13] | MIC of antibiotics [14] | MIC of antibiotics [15] | MIC of antibiotics [16] | MIC of antibiotics [17] | MIC of antibiotics [18] | MIC of antibiotics [19] | further results
C[C@H]1[C@H](NC(=O)/C(=N\OC(C)(C)C(=O)O)c2csc(N)n2)C(=O)N1S(=O)(=O)O [Azt, aztreonam, reference compound] | 0.5 | 2 | 128 µg/mL | 4 µg/mL | 4 µg/mL | 2 µg/mL | >128 µg/mL | 0.5 µg/mL | 4 µg/mL | >128 µg/mL | 4 µg/mL | 16 µg/mL | 0.5 µg/mL | 128 µg/mL | >128 µg/mL | – | – | – | – | – | MIC [1]: 128 µg/mL; MIC of DrugB + TM8 [1]: 64 µg/mL
CC(C)(O/N=C(\C(=O)N[C@@H]1C(=O)N2C(C(=O)[O-])=C(C[n+]3ccccc3)CS[C@H]12)c1csc(N)n1)C(=O)O [Cefaz, ceftazidime, reference compound] | – | – | 32 µg/mL | 2 µg/mL | 4 µg/mL | 2 µg/mL | >512 µg/mL | 0.5 µg/mL | 4 µg/mL | 32 µg/mL | 4 µg/mL | 128 µg/mL | 0.25 µg/mL | >512 µg/mL | >512 µg/mL | 512 µg/mL | 512 µg/mL | 512 µg/mL | 512 µg/mL | 8 µg/mL | –
CO/N=C(\C(=O)N[C@@H]1C(=O)N2C(C(=O)O)=C(COC(C)=O)CS[C@H]12)c1csc(N)n1 [Cefot, cefotaxime, reference compound] | 0.5 | 2 | – | – | 4 µg/mL | 2 µg/mL | >512 µg/mL | 0.5 µg/mL | 8 µg/mL | 32 µg/mL | 4 µg/mL | 128 µg/mL | 0.25 µg/mL | >512 µg/mL | – | 512 µg/mL | 512 µg/mL | 512 µg/mL | 512 µg/mL | 8 µg/mL | MIC [20]: 32 µg/mL; FICDrugB [20]: 0.5; MF of antibiotic (modulation factor) [20]: 2; MIC of DrugB + TM8 [20]: 16 µg/mL; MIC [1]: 1020 µg/mL; MIC of DrugB + TM8 [1]: 512 µg/mL
O=C(O)c1cn(C2CC2)c2cc(N3CCNCC3)c(F)cc2c1=O [Cip, ciprofloxacin] | 0.023 | 4 | – | – | – | – | – | – | – | – | – | – | – | – | – | – | – | – | – | – | FICDrugB [20]: 0.5; MF of antibiotic (modulation factor) [20]: 2; MIC of DrugB + TM8 [1]: 32 µg/mL
CNC(C)C1CCC(N)C(OC2C(N)CC(N)C(OC3OCC(C)(O)C(NC)C3O)C2O)O1 (stereo not shown) [Gen, gentamicin, reference compound] | 0.5 | 2 | >128 µg/mL | – | 0.5 µg/mL | 0.25 µg/mL | 128 µg/mL | 0.5 µg/mL | 0.5 µg/mL | 0.5 µg/mL | 4 µg/mL | 0.25 µg/mL | 0.25 µg/mL | >128 µg/mL | >128 µg/mL | >128 µg/mL | >128 µg/mL | >128 µg/mL | >128 µg/mL | 4 µg/mL | MIC [1]: 1020 µg/mL; MIC of DrugB + TM8 [1]: 512 µg/mL
C[C@@H](O)[C@H]1C(=O)N2C(C(=O)O)=C(S[C@@H]3CN[C@H](C(=O)N(C)C)C3)[C@H](C)[C@H]12 [Mer, meropenem, reference compound] | – | – | 4 µg/mL | 1 µg/mL | 1 µg/mL | 2 µg/mL | 1 µg/mL | 2 µg/mL | 1 µg/mL | 32 µg/mL | 1 µg/mL | 0.25 µg/mL | 2 µg/mL | >64 µg/mL | >64 µg/mL | >64 µg/mL | 64 µg/mL | 64 µg/mL | 64 µg/mL | 0.5 µg/mL | MIC [20]: 32 µg/mL; FICDrugB [20]: 0.125; MF of antibiotic (modulation factor) [20]: 8; MIC of DrugB + TM8 [20]: 4 µg/mL
colistin sulfate [reference compound] | – | – | 1 µg/mL | 16 µg/mL | 2 µg/mL | 2 µg/mL | 1 µg/mL | 0.25 µg/mL | 1 µg/mL | 1 µg/mL | 2 µg/mL | 2 µg/mL | 0.25 µg/mL | 1 µg/mL | 1 µg/mL | 0.25 µg/mL | 1 µg/mL | 1 µg/mL | 0.25 µg/mL | 2 µg/mL | –
polymyxin B [PmB, reference compound] | – | – | 2 µg/mL | 16 µg/mL | 2 µg/mL | 2 µg/mL | 1 µg/mL | 0.25 µg/mL | 1 µg/mL | 1 µg/mL | 2 µg/mL | 2 µg/mL | 0.25 µg/mL | 1 µg/mL | 2 µg/mL | 0.25 µg/mL | 1 µg/mL | 1 µg/mL | 0.25 µg/mL | 2 µg/mL | –
